Measured values: patent publication US20190100534A1, “Cephem Compounds with Latent Reactive Groups” (Gladius Pharmaceuticals, Inc., priority 2017, published 2019)

What was measured:
Format in all cases: cell-based
[1] = test system: Isogenic E. coli J58 strain carrying KPC-2; assay: MIC determination, isogenic E. coli strains; details: Escherichia coli, 18 h, read-out: Mimimum Inhibitory Concentrations, KPC-2
Method in brief: (§1)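 Broth microdilution in cation-adjusted Mueller-Hinton broth with 20 μM apo-transferrin, compound at 64 down to […], inoculum set to 0.5 McFarland. E. coli J53 transformed with pBC-SK(+) carrying the synthetic beta-lactamase gene was used. Plates were incubated 18 h at 37 °C; MIC is the lowest concentration giving a clear well.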

[2] = test system: Isogenic E. coli J58 strain carrying KPC-3; assay: MIC determination, isogenic E. coli strains; details: Escherichia coli, 18 h, read-out: Mimimum Inhibitory Concentrations, KPC-3
Method in brief: as §1

[3] = test system: Isogenic E. coli J58 strain carrying SHV-1; assay: MIC determination, isogenic E. coli strains; details: Escherichia coli, 18 h, read-out: Mimimum Inhibitory Concentrations, SHV-1
Method in brief: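 MIC is the lowest compound concentration leaving a transparent well after overnight (18 h) incubation at 37 °C. The test strain was E. coli J53 expressing plasmid-borne SHV-1 beta-lactamase from pBC-SK(+), adjusted to 0.5 McFarland. Compounds were twofold serially diluted, starting at 64 μg/mL, in CAMH broth supplemented with 20 μM apo-transferrin.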

[4] = test system: Isogenic E. coli J58 strain carrying IMP-1; assay: MIC determination, isogenic E. coli strains; details: for MIC: Escherichia coli, 18 h, read-out: Mimimum Inhibitory Concentrations, IMP-1
Method in brief: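 Broth microdilution in cation-adjusted Mueller-Hinton broth with 20 μM apo-transferrin, compound serially diluted two-fold from 64 μg/mL, against E. coli J53 carrying plasmid-borne IMP-1. Inoculum adjusted to 0.5 McFarland; plates incubated 18 h at 37° C. MIC taken as lowest concentration giving a clear well.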

E. coli J53 Alone = assay: MIC determination, isogenic E. coli strains; details: for MIC: Escherichia coli, J53ALONE, 18 h, read-out: Mimimum Inhibitory Concentrations, J53 Alone; for Mimimum Inhibitory Concentrations, J53 Alone: Table 4-2, CAMH broth, 20 μM Apo-Transferrin, 37° C., 18 hours
Method in brief: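 Broth microdilution in cation-adjusted Mueller-Hinton broth with 20 μM apo-transferrin, 2-fold compound series from 64 μg/mL. E. coli J53, alone or transformed with a pBC-SK(+) plasmid carrying the beta-lactamase gene (e.g. DHA-1), inoculated from 0.5 McFarland suspension; 18 h at 37° C; MIC = lowest concentration with clear well.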

[5] = test system: Pseudomonas aeruginosa PA-RR-(G8062859); assay: MIC determination; details: Pseudomonas aeruginosa; PA-RR-(G8062859); CAMH broth, 20 μM Apo-Transferrin, 37° C., 18 hours; read-out: Minimum Inhibitory Concentrations, PA-RR-(G8062859)
Method: (§2) Sterile technique was used throughout these experiments. Suspensions of organisms were removed from storage (−80° C.) and partially thawed. Partially thawed organisms (1 μL) were inoculated into 3 mL sterile LB Broth in a sterile culture tube and capped, then cultured at 37° C. with shaking for 4-5 hours until the optical density at 600 nm (OD600) was greater than 0.1 on a single beam spectrophotometer.
(§3) The concentration of organisms was adjusted to 0.08-0.1 OD600 (0.5 McFarland units) by dilution with sterile cation-adjusted Meuller-Hinton (CAMH) broth. The suspensions were used within 30 minutes of preparation.
(§4) A stock solution was made of each test compound by measuring 6.4 mg of the compound on an analytical balance and dissolving it in DMSO (1 mL) to get a transparent solution. The solutions were stored at −20° C. and thawed prior to use.
(§5) Sterile CAMH broth (200 μL) containing 20 μM Apo-Transferrin was pipetted into the first row of 8 columns of a sterile, round-bottomed, transparent, 96-well microplate using an 8-channel pipette equipped with sterile tips. One hundred μL was pipetted into the wells of the remaining 11 rows.
(§6) With an 8-channel pipette equipped with sterile tips, 100 μL of the first row solution was transferred to the second row and mixed. The process was repeated for the second to third rows and continued through row 11. One hundred μL from row 11 was removed and discarded so that all 12 rows contained 100 μL. Row 12 contained no compound and rows 1-11 contained 64, 32, 16, 8, 4, 2, 1, 0.5, 0.25, 0.125, […] of a given compound.
(§7) Inoculant suspensions (0.5 μL) were added to the 12 wells of each column. The plates were then covered and incubated at 37° C. overnight for 18 hours.
(§8) For each organism the MIC was determined by identifying the transparent well with the lowest test compound concentration.

[6] = test system: Pseudomonas aeruginosa PA-RR-(98023895); assay: MIC determination; details: Pseudomonas aeruginosa; PA-RR-(98023895); CAMH broth, 20 μM Apo-Transferrin, 37° C., 18 hours; read-out: Minimum Inhibitory Concentrations, PA-RR-(98023895)
Method: as §2, §3, §4, §5, §6, §7, §8

[7] = test system: Pseudomonas aeruginosa PA-RR-(purple Fre D); assay: MIC determination; details: Pseudomonas aeruginosa, CAMH broth, 20 μM Apo-Transferrin, 37° C., 18 hours, read-out: Minimum Inhibitory Concentrations, PA-RR-(purple Fre D)
Method: as §2, §3, §4, §5, §6, §7, §8

[8] = test system: Pseudomonas aeruginosa PA-RR-(G7305586); assay: MIC determination; details: Pseudomonas aeruginosa; PA-RR-(G7305586); CAMH broth, 20 μM Apo-Transferrin, 37° C., 18 hours; read-out: Minimum Inhibitory Concentrations, PA-RR-(G7305586)
Method: as §2, §3, §4, §5, §6, §7, §8

[9] = test system: Pseudomonas aeruginosa PA (RR-1); assay: MIC determination; details: Pseudomonas aeruginosa; PA (RR-1); CAMH broth, 20 μM Apo-Transferrin, 37° C., 18 hours; read-out: Minimum Inhibitory Concentrations, PA (RR-1)
Method: as §2, §3, §4, §5, §6, §7, §8

[10] = test system: Pseudomonas aeruginosa PA-RR-(G7294437); assay: MIC determination; details: Pseudomonas aeruginosa; PA-RR-(G7294437); CAMH broth, 20 μM Apo-Transferrin, 37° C., 18 hours; read-out: Minimum Inhibitory Concentrations, PA-RR-(G7294437)
Method: as §2, §3, §4, §5, §6, §7, §8

[11] = test system: Pseudomonas aeruginosa PA (RR-2); assay: MIC determination; details: Pseudomonas aeruginosa; PA (RR-2); CAMH broth, 20 μM Apo-Transferrin, 37° C., 18 hours; read-out: Minimum Inhibitory Concentrations, PA (RR-2)
Method: as §2, §3, §4, §5, §6, §7, §8

[12] = test system: Pseudomonas aeruginosa PA-RR-(980151052); assay: MIC determination; details: Pseudomonas aeruginosa; PA-RR-(980151052); CAMH broth, 20 μM Apo-Transferrin, 37° C., 18 hours; read-out: Minimum Inhibitory Concentrations, PA-RR-(980151052)
Method: as §2, §3, §4, §5, §6, §7, §8

[13] = test system: Pseudomonas aeruginosa (PA); assay: MIC determination; details: Pseudomonas aeruginosa; PA; CAMH broth, 20 μM Apo-Transferrin, 37° C., 18 hours; read-out: Minimum Inhibitory Concentrations, PA
Method: as §2, §3, §4, §5, §6, §7, §8

[14] = test system: Pseudomonas aeruginosa PA-RR-(G7304100); assay: MIC determination; details: Pseudomonas aeruginosa; PA-RR-(G7304100); CAMH broth, 20 μM Apo-Transferrin, 37° C., 18 hours; read-out: Minimum Inhibitory Concentrations, PA-RR-(G7304100)
Method: as §2, §3, §4, §5, §6, §7, §8

[15] = test system: Pseudomonas aeruginosa PA (URMC-2); assay: MIC determination; details: Pseudomonas aeruginosa; PA (URMC-2); CAMH broth, 20 μM Apo-Transferrin, 37° C., 18 hours; read-out: Minimum Inhibitory Concentrations, PA (URMC-2)
Method: as §2, §3, §4, §5, §6, §7, §8

[16] = test system: Pseudomonas aeruginosa PA (URMC-3); assay: MIC determination; details: Pseudomonas aeruginosa; PA (URMC-3); CAMH broth, 20 μM Apo-Transferrin, 37° C., 18 hours; read-out: Minimum Inhibitory Concentrations, PA (URMC-3)
Method: as §2, §3, §4, §5, §6, §7, §8

[17] = test system: Isogenic E. coli J58 strain carrying NDM-1; assay: MIC determination, isogenic E. coli strains; details: Escherichia coli, 18 h, read-out: Mimimum Inhibitory Concentrations, NDM-1
Method in brief: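 E. coli J53 transformed with a pBC-SK(+) plasmid encoding NDM-1 was adjusted to 0.08-0.1 OD600. It was grown 18 h at 37° C in CAMH broth containing 20 μM apo-transferrin with twofold compound dilutions from 64 μg/mL. MIC was taken as the lowest concentration giving a transparent well.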

| SMILES | MIC [1] [µg/mL] | MIC [2] [µg/mL] | MIC [3] [µg/mL] | MIC [4] [µg/mL] | MIC (E. coli J53 Alone) [µg/mL] | Mimimum Inhibitory Concentrations, J53 Alone (E. coli J53 Alone) [microgram/mL] | MIC [5] [µg/mL] | MIC [6] [µg/mL] | MIC [7] [µg/mL] | MIC [8] [µg/mL] | MIC [9] [µg/mL] | MIC [10] [µg/mL] | MIC [11] [µg/mL] | MIC [12] [µg/mL] | MIC [13] [µg/mL] | MIC [14] [µg/mL] | MIC [15] [µg/mL] | MIC [16] [µg/mL] | MIC [17] [µg/mL] | MICs for an E. coli strain carrying the gene for carbapenemase IMP-1, in words ([4]; review of Tables 4-1 and 4-2) |
| --- | --- | --- | --- | --- | --- | --- | --- | --- | --- | --- | --- | --- | --- | --- | --- | --- | --- | --- | --- | --- |
| CC(C)(O/N=C(\C(=O)N[C@@H]1C(=O)N2C(C(=O)O)=C(C=Cc3ccc(C[N+](C)(C)Cc4cc(O)c(O)c(Cl)c4)cc3)CS[C@H]12)c1csc(N)n1)C(=O)O (mixture of isomers) [Compound 436, N-(4-((E/Z)-2-((6R,7R)-7-((Z)-2-(2-aminothiazol-4-yl)-2-(((2-carboxypropan-2-yl)oxy)imino)acetamido)-2-carboxy-8-oxo-5-thia-1-azabicyclo[4.2.0]oct-2-en-3-yl)vinyl)benzyl)-1-(3-chloro-4,5-dihydroxyphenyl)-N,N-dimethylmethanaminium] | 64 | 8 | 1 | 8 | 0.13 | 0.13 | 5 | 4 | 2 | 8 | 2 | 0.5 | 4 | 4 | 8 | 4 | 8 | 64 | > 64 | – |
| CC(C)(O/N=C(\C(=O)N[C@@H]1C(=O)N2C(C(=O)O)=C(C=Cc3ccc(C[N+]4(C)CCc5ccc(O)c(O)c5C4)cc3)CS[C@H]12)c1csc(N)n1)C(=O)O (mixture of isomers) [Compound 442, 2-(4-((E/Z)-2-((6R,7R)-7-((Z)-2-(2-aminothiazol-4-yl)-2-(((2-carboxypropan-2-yl)oxy)imino)acetamido)-2-carboxy-8-oxo-5-thia-1-azabicyclo[4.2.0]oct-2-en-3 yl)vinyl)benzyl)-7,8-dihydroxy-2-methyl-1,2,3,4-tetrahydroisoquinolin-2-ium] | 2 | 1 | 0.5 | – | 0.25 | 0.25 | 0.25 | 8 | 1 | 2 | 0.5 | ≤ 0.06 | ≤ 0.06 | 2 | 0.13 | ≤ 0.06 | 0.25 | 0.5 | > 64 | low microgram/mL MICs |
| CC(C)(O/N=C(\C(=O)N[C@@H]1C(=O)N2C(C(=O)O)=C(C=Cc3ccc(C[n+]4ccc(NC(=O)c5ccc(O)c(O)c5)cc4)cc3)CS[C@H]12)c1csc(N)n1)C(=O)O (mixture of isomers) [Compound 427, 1-(4-((E/Z)-2-((6R,7R)-7-((Z)-2-(2-aminothiazol-4-yl)-2-(((2-carboxypropan-2-yl)oxy)imino)acetamido)-2-carboxy-8-oxo-5-thia-1-azabicyclo[4.2.0]oct-2-en-3-yl)vinyl)benzyl)-4-(3,4-dihydroxybenzamido)pyridin-1-ium] | 16 | 4 | 1 | 16 | ≤ 0.06 | ≤0.06 | 0.25 | 4 | 0.25 | 8 | 4 | ≤ 0.06 | ≤ 0.06 | 0.5 | 0.06 | ≤ 0.06 | 0.06 | 0.25 | > 64 | – |
| CC(C)(O/N=C(\C(=O)N[C@@H]1C(=O)N2C(C(=O)O)=C(C=Cc3ccc(C[N+]4(C)CCc5cc(O)c(O)cc5C4)cc3)CS[C@H]12)c1csc(N)n1)C(=O)O (mixture of isomers) [Compound 407, 2-(4-((E/Z)-2-((6R,7R)-7-((Z)-2-(2-aminothiazol-4-yl)-2-(((2-carboxypropan-2-yl)oxy)imino)acetamido)-2-carboxy-8-oxo-5-thia-1-azabicyclo[4.2.0]oct-2-en-3 yl)vinyl)benzyl)-6,7-dihydroxy-2-methyl-1,2,3,4-tetrahydroisoquinolin-2-ium] | 8 | 4 | 0.5 | 32 | 0.13 | 0.13 | 0.06 | 0.13 | 0.06 | 0.03 | 4 | 0.03 | 2 | 0.06 | 2 | 0.03 | 4 | 0.25 | > 64 | – |
